{"source": "the supplement of paper PMC10307832", "test_in_all_cases": "relative viability (nuclei count vs DMSO), 5 days (fraction); higher = more cells survive", "key": {"COR-L23": {"system": "COR-L23", "in_short": "(§1)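 Lung cancer cell lines in 1536-well plates were dosed by pin tool the day after seeding, either with one drug alone or with a fixed anchor-drug dose plus five library-drug doses (not always all listed) in √10 steps. After 5 days, cells were fixed and their nuclei stained in one step (final 0.05% Triton X-100, 1% formaldehyde, 1 ug/ml Hoechst), then counted on 4× images. Relative viability is the nuclei count in treated wells divided by that in vehicle wells. Values are medians of duplicate plates.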"}, "EMC-BAC-2": {"system": "EMC-BAC-2", "in_short": "as §1"}, "EPLC-272H": {"system": "EPLC-272H", "in_short": "as §1"}, "HCC-44": {"system": "HCC-44", "in_short": "as §1"}, "HOP-62": {"system": "HOP-62", "in_short": "as §1"}, "LCLC-103H": {"system": "LCLC-103H", "in_short": "as §1"}, "LK-2": {"system": "LK-2", "in_short": "as §1"}, "NCI-H1355": {"system": "NCI-H1355", "in_short": "as §1"}, "NCI-H1666": {"system": "NCI-H1666", "in_short": "as §1"}, "NCI-H1944": {"system": "NCI-H1944", "in_short": "as §1"}, "NCI-H1975": {"system": "NCI-H1975", "in_short": "as §1"}, "NCI-H2023": {"system": "NCI-H2023", "in_short": "as §1"}, "NCI-H2087": {"system": "NCI-H2087", "in_short": "as §1"}, "NCI-H2126": {"system": "NCI-H2126", "in_short": "as §1"}, "NCI-H2228": {"system": "NCI-H2228", "in_short": "as §1"}, "NCI-H2405": {"system": "NCI-H2405", "in_short": "as §1"}, "NCI-H3122": {"system": "NCI-H3122", "in_short": "as §1"}, "NCI-H322M": {"system": "NCI-H322M", "in_short": "as §1"}, "NCI-H441": {"system": "NCI-H441", "in_short": "as §1"}, "NCI-H460": {"system": "NCI-H460", "in_short": "as §1"}, "NCI-H596": {"system": "NCI-H596", "in_short": "as §1"}, "PC-14": {"system": "PC-14", "in_short": "as §1"}, "SW 1573": {"system": "SW 1573", "in_short": "as §1"}}}
{"smiles": "Nc1cccc2c1CN(C1CCC(=O)NC1=O)C2=O", "note": "(stereo unspecified) [Lenalidomide] + C[C@]1(O)C[C@@H](c2nc(-c3ccc4ccc(-c5ccccc5)nc4c3)c3c(N)nccn32)C1 [Linsitinib] (partner 1 µM)", "values": [{"measurement": "relative viability", "setting": "COR-L23; first compound 0.253 µM", "result": 0.991}, {"measurement": "relative viability", "setting": "COR-L23; first compound 0.8 µM", "result": 1.12}, {"measurement": "relative viability", "setting": "COR-L23; first compound 2.53 µM", "result": 1.01}, {"measurement": "relative viability", "setting": "COR-L23; first compound 8 µM", "result": 0.906}, {"measurement": "relative viability", "setting": "EMC-BAC-2; first compound 0.253 µM", "result": 0.786}, {"measurement": "relative viability", "setting": "EMC-BAC-2; first compound 0.8 µM", "result": 0.833}, {"measurement": "relative viability", "setting": "EMC-BAC-2; first compound 2.53 µM", "result": 0.823}, {"measurement": "relative viability", "setting": "EMC-BAC-2; first compound 8 µM", "result": 0.693}, {"measurement": "relative viability", "setting": "EPLC-272H; first compound 0.253 µM", "result": 1.24}, {"measurement": "relative viability", "setting": "EPLC-272H; first compound 2.53 µM", "result": 1.11}, {"measurement": "relative viability", "setting": "EPLC-272H; first compound 8 µM", "result": 0.843}, {"measurement": "relative viability", "setting": "HCC-44; first compound 0.253 µM", "result": 0.648}, {"measurement": "relative viability", "setting": "HCC-44; first compound 0.8 µM", "result": 0.537}, {"measurement": "relative viability", "setting": "HCC-44; first compound 2.53 µM", "result": 0.738}, {"measurement": "relative viability", "setting": "HCC-44; first compound 8 µM", "result": 0.522}, {"measurement": "relative viability", "setting": "HOP-62; first compound 0.253 µM", "result": 0.89}, {"measurement": "relative viability", "setting": "HOP-62; first compound 0.8 µM", "result": 0.969}, {"measurement": "relative viability", "setting": "HOP-62; first compound 2.53 µM", "result": 0.837}, {"measurement": "relative viability", "setting": "HOP-62; first compound 8 µM", "result": 0.918}, {"measurement": "relative viability", "setting": "LCLC-103H; first compound 0.253 µM", "result": 1.11}, {"measurement": "relative viability", "setting": "LCLC-103H; first compound 0.8 µM", "result": 1.09}, {"measurement": "relative viability", "setting": "LCLC-103H; first compound 2.53 µM", "result": 1.05}, {"measurement": "relative viability", "setting": "LCLC-103H; first compound 8 µM", "result": 0.86}, {"measurement": "relative viability", "setting": "LK-2; first compound 0.253 µM", "result": 0.427}, {"measurement": "relative viability", "setting": "LK-2; first compound 0.8 µM", "result": 0.355}, {"measurement": "relative viability", "setting": "LK-2; first compound 2.53 µM", "result": 0.428}, {"measurement": "relative viability", "setting": "LK-2; first compound 8 µM", "result": 0.451}, {"measurement": "relative viability", "setting": "NCI-H1355; first compound 0.253 µM", "result": 0.827}, {"measurement": "relative viability", "setting": "NCI-H1355; first compound 0.8 µM", "result": 0.748}, {"measurement": "relative viability", "setting": "NCI-H1355; first compound 2.53 µM", "result": 0.864}, {"measurement": "relative viability", "setting": "NCI-H1355; first compound 8 µM", "result": 0.53}, {"measurement": "relative viability", "setting": "NCI-H1666; first compound 0.253 µM", "result": 0.921}, {"measurement": "relative viability", "setting": "NCI-H1666; first compound 0.8 µM", "result": 0.652}, {"measurement": "relative viability", "setting": "NCI-H1666; first compound 2.53 µM", "result": 0.853}, {"measurement": "relative viability", "setting": "NCI-H1666; first compound 8 µM", "result": 0.833}, {"measurement": "relative viability", "setting": "NCI-H1944; first compound 0.253 µM", "result": 1.15}, {"measurement": "relative viability", "setting": "NCI-H1944; first compound 0.8 µM", "result": 1.27}, {"measurement": "relative viability", "setting": "NCI-H1944; first compound 2.53 µM", "result": 1.24}, {"measurement": "relative viability", "setting": "NCI-H1944; first compound 8 µM", "result": 0.948}, {"measurement": "relative viability", "setting": "NCI-H1975; first compound 0.253 µM", "result": 1.15}, {"measurement": "relative viability", "setting": "NCI-H1975; first compound 0.8 µM", "result": 1}, {"measurement": "relative viability", "setting": "NCI-H1975; first compound 2.53 µM", "result": 1.2}, {"measurement": "relative viability", "setting": "NCI-H1975; first compound 8 µM", "result": 1.12}, {"measurement": "relative viability", "setting": "NCI-H2023; first compound 0.253 µM", "result": 0.68}, {"measurement": "relative viability", "setting": "NCI-H2023; first compound 0.8 µM", "result": 0.831}, {"measurement": "relative viability", "setting": "NCI-H2023; first compound 2.53 µM", "result": 0.681}, {"measurement": "relative viability", "setting": "NCI-H2023; first compound 8 µM", "result": 0.695}, {"measurement": "relative viability", "setting": "NCI-H2087; first compound 0.253 µM", "result": 0.98}, {"measurement": "relative viability", "setting": "NCI-H2087; first compound 0.8 µM", "result": 0.919}, {"measurement": "relative viability", "setting": "NCI-H2087; first compound 2.53 µM", "result": 0.915}, {"measurement": "relative viability", "setting": "NCI-H2087; first compound 8 µM", "result": 1.09}, {"measurement": "relative viability", "setting": "NCI-H2126; first compound 0.253 µM", "result": 0.692}, {"measurement": "relative viability", "setting": "NCI-H2126; first compound 0.8 µM", "result": 0.681}, {"measurement": "relative viability", "setting": "NCI-H2126; first compound 2.53 µM", "result": 0.702}, {"measurement": "relative viability", "setting": "NCI-H2126; first compound 8 µM", "result": 0.486}, {"measurement": "relative viability", "setting": "NCI-H2228; first compound 0.253 µM", "result": 0.598}, {"measurement": "relative viability", "setting": "NCI-H2228; first compound 0.8 µM", "result": 0.774}, {"measurement": "relative viability", "setting": "NCI-H2228; first compound 2.53 µM", "result": 0.802}, {"measurement": "relative viability", "setting": "NCI-H2228; first compound 8 µM", "result": 0.639}, {"measurement": "relative viability", "setting": "NCI-H2405; first compound 0.253 µM", "result": 0.816}, {"measurement": "relative viability", "setting": "NCI-H2405; first compound 0.8 µM", "result": 1.05}, {"measurement": "relative viability", "setting": "NCI-H2405; first compound 2.53 µM", "result": 0.9}, {"measurement": "relative viability", "setting": "NCI-H2405; first compound 8 µM", "result": 0.675}, {"measurement": "relative viability", "setting": "NCI-H3122; first compound 0.253 µM", "result": 1.02}, {"measurement": "relative viability", "setting": "NCI-H3122; first compound 0.8 µM", "result": 1.04}, {"measurement": "relative viability", "setting": "NCI-H3122; first compound 2.53 µM", "result": 0.996}, {"measurement": "relative viability", "setting": "NCI-H3122; first compound 8 µM", "result": 0.998}, {"measurement": "relative viability", "setting": "NCI-H322M; first compound 0.253 µM", "result": 0.912}, {"measurement": "relative viability", "setting": "NCI-H322M; first compound 0.8 µM", "result": 1.06}, {"measurement": "relative viability", "setting": "NCI-H322M; first compound 2.53 µM", "result": 0.856}, {"measurement": "relative viability", "setting": "NCI-H322M; first compound 8 µM", "result": 0.708}, {"measurement": "relative viability", "setting": "NCI-H441; first compound 0.253 µM", "result": 0.547}, {"measurement": "relative viability", "setting": "NCI-H441; first compound 0.8 µM", "result": 0.345}, {"measurement": "relative viability", "setting": "NCI-H441; first compound 2.53 µM", "result": 0.692}, {"measurement": "relative viability", "setting": "NCI-H441; first compound 8 µM", "result": 0.555}, {"measurement": "relative viability", "setting": "NCI-H460; first compound 0.253 µM", "result": 0.777}, {"measurement": "relative viability", "setting": "NCI-H460; first compound 0.8 µM", "result": 0.821}, {"measurement": "relative viability", "setting": "NCI-H460; first compound 2.53 µM", "result": 1.25}, {"measurement": "relative viability", "setting": "NCI-H460; first compound 8 µM", "result": 0.622}, {"measurement": "relative viability", "setting": "NCI-H596; first compound 0.253 µM", "result": 1.07}, {"measurement": "relative viability", "setting": "NCI-H596; first compound 0.8 µM", "result": 1.03}, {"measurement": "relative viability", "setting": "NCI-H596; first compound 2.53 µM", "result": 1.23}, {"measurement": "relative viability", "setting": "NCI-H596; first compound 8 µM", "result": 0.969}, {"measurement": "relative viability", "setting": "PC-14; first compound 0.253 µM", "result": 0.925}, {"measurement": "relative viability", "setting": "PC-14; first compound 0.8 µM", "result": 0.988}, {"measurement": "relative viability", "setting": "PC-14; first compound 2.53 µM", "result": 0.978}, {"measurement": "relative viability", "setting": "PC-14; first compound 8 µM", "result": 0.969}, {"measurement": "relative viability", "setting": "SW 1573; first compound 0.253 µM", "result": 0.772}, {"measurement": "relative viability", "setting": "SW 1573; first compound 0.8 µM", "result": 0.866}, {"measurement": "relative viability", "setting": "SW 1573; first compound 2.53 µM", "result": 0.792}, {"measurement": "relative viability", "setting": "SW 1573; first compound 8 µM", "result": 0.791}]}
